Format in all cases: binding
For assay [1], the target named is T1, T-cell-originated protein kinase (TOPK) (Homo sapiens, UniProt Q96KB5).
T1 construct: gene PBK
T1 sequence (Q96KB5 1-322): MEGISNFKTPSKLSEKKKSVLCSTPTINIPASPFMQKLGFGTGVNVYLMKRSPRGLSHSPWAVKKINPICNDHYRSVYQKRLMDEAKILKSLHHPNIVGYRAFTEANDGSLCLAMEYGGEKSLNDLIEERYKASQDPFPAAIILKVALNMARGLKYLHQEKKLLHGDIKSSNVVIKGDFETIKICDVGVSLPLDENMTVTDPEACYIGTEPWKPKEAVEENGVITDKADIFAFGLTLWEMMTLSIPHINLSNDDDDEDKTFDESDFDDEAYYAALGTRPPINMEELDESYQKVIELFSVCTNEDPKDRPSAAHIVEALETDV
Description: biochemical.

Assay [2] addresses T1, T-cell-originated protein kinase (TOPK). Briefly: microscale thermophoresis with labeled recombinant TOPK (reference inhibitor). Particulars: read-out: Dissociation constant with TOPK / Kd^b.
Assay [3] shares this target. Description: microscale thermophoresis with labeled recombinant TOPK; also in vitro kinase assay (histone H3 phosphorylation). To be noted: read-out: Dissociation constant with TOPK / Kd^b.
The mark [4] stands for this setting: read-out: Dissociation constant with TOPK / Kd^b.

In the case of `NC(CO)C(=O)NNCc1ccc(O)c(O)c1O` (centres unmarked) [Benserazide], in assay [1] (setting [4]), the Kd was found to be 477 ± 19.9 µM.

Regarding `N#Cc1c2nc3ccccc3nc2n2ccc(NC(=O)c3cccs3)cc12` [HI-TOPK-032], the Kd in assay [2] was determined as 327 ± 62.7 µM.

`COc1ccnc(C[S+]([O-])c2nc3ccc(OC(F)F)cc3[nH]2)c1OC` (centres unmarked) [Pantoprazole]: the Kd in assay [3] was 24.2 ± 2.3 µM.

`CC(=O)Nc1ccc(OCC(O)CNC(C)C)cc1` (centres unmarked) [Practolol]: in assay [1] (setting [4]), the Kd amounted to 226 ± 29.5 µM.

`O=C(O)c1cc(/N=N/c2ccc(S(=O)(=O)Nc3ccccn3)cc2)ccc1O` [Sulfasalazine] displayed a Kd in assay [1] of 339 ± 7.7 µM.

The values are drawn from PMC5008373, “Pantoprazole, an FDA-approved proton-pump inhibitor, suppresses colorectal cancer growth by targeting T-cell-originated protein kinase” (Oncotarget, 2016).
